The results in this text go back to patent publication US8334315B2, “Substituted aromatic carboxamide and urea derivatives as vanilloid receptor ligands” (Gruenenthal GmbH, priority 2009, dated 2012).

One assay concerns the target T1, hVR1 (Homo sapiens, UniProt Q8NER1).
T1 construct: expressed in transfected cells; host or cells: CHO K1 cells (ECACC), stably transfected
In words: Functional test on VR1, FLIPR Ca2+ influx in transfected CHO K1 cells, capsaicin. The format is cell-based, human being. Set-up: key to Ki (human being) [nM] Cap: agonist / partial agonist / no effect: AG=agonist; pAG=partial agonist; NE=no effect. Conditions: for Ki: capsaicin (Cap), includes values given in brackets after pAG, read-out: Ki (human being) [nM] Cap.

Assay [1] addresses T2, rat-species vanilloid receptor 1 (VR1/TRPV1) (Rattus norvegicus, UniProt O35433).
T2 construct: endogenous in cells; host or cells: primary cells dissociated from rat dorsal root ganglia (DRG), cultured 2-3 days with NGF
As to the kind of experiment: Functional testing on the vanilloid receptor 1, FLIPR Ca2+ influx in rat DRG cells, capsaicin. The format is cell-based. Set-up: key to Ki (rat) [nM] Cap: agonist / partial agonist / no effect: AG=agonist; pAG=partial agonist; NE=no effect. Conditions: for Ki: capsaicin (Cap), includes values given in brackets after pAG.

The Ki is a dissociation constant, usually derived from enzyme kinetics or from competition with a known ligand.

T2 sequence (O35433 whole entry): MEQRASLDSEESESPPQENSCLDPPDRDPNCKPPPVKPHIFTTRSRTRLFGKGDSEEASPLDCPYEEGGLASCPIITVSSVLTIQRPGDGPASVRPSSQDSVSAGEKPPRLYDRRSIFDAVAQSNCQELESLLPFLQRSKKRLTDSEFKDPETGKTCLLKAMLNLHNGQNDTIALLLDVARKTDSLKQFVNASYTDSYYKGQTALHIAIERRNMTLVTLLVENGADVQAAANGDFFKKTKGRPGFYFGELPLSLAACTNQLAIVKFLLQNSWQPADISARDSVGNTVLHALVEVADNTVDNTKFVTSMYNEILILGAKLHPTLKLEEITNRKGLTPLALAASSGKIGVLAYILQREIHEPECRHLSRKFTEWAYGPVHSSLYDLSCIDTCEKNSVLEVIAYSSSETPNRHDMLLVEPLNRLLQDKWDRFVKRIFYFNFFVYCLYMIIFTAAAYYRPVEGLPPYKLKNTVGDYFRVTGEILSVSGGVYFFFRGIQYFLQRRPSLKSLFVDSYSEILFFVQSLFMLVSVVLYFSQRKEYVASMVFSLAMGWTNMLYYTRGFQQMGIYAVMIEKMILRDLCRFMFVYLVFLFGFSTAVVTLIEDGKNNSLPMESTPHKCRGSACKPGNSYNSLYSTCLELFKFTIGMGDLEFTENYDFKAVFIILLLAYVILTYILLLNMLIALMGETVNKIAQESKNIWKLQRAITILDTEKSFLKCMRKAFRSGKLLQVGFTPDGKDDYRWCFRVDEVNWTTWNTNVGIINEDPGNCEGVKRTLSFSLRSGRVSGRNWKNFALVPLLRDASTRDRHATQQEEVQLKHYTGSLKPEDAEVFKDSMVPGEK
T1 sequence (Q8NER1 whole entry): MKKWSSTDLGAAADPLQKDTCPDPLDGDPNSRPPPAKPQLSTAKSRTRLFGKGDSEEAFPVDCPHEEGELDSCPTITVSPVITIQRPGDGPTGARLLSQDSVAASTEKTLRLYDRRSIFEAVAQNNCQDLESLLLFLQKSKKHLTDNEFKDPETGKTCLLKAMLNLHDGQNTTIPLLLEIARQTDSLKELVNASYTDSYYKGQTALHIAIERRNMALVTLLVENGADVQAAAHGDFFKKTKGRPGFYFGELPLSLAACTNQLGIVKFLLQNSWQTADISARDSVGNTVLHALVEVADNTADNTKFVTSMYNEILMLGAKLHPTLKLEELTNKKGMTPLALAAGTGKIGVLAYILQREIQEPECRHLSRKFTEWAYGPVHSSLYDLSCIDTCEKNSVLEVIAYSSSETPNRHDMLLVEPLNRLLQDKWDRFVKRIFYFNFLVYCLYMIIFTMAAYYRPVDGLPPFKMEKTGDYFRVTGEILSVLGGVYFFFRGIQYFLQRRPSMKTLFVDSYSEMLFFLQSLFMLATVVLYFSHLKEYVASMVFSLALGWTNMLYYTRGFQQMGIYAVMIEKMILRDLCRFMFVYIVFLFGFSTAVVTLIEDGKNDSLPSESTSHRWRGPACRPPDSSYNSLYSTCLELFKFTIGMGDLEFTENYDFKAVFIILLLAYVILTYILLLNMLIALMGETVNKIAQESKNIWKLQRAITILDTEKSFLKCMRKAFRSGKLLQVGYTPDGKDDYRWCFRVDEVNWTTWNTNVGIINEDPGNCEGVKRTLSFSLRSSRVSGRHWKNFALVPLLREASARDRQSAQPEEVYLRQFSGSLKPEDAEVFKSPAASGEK

As to `Cc1nc2ccc(C(C)C(=O)NCc3cc(C(F)(F)F)nn3-c3cccc(Cl)c3)cc2s1` (stereo not drawn) [Example 45, N-((1-(3-chlorophenyl)-3-(trifluoromethyl)-1H-pyrazol-5-yl)methyl)-2-(2-methylbenzo[d]thiazol-6-yl)propanamide], the Ki on hVR1 turned out to be 15 nM. In assay [1], the “Ki (rat) [nM] Cap: agonist / partial agonist / no effect” value is “pAG” and the Ki came out at 14.7 nM.
On to `CC(C)(C)c1cc(CNC(=O)Nc2ccc3c(c2)CCC3)n(-c2cccc(Cl)c2)n1` [Example 79, 1-((3-tert-butyl-1-(3-chlorophenyl)-1H-pyrazol-5-yl)methyl)-3-(2,3-dihydro-1H-inden-5-yl)urea], for which the Ki on hVR1 worked out at 10.8 nM; in assay [1] it was 15.8 nM.
As for `CC(C(=O)NCc1cc(C(F)(F)F)nn1-c1cccc(Cl)c1)c1ccc2cc(O)ccc2c1` (stereo not drawn) [Example 50, N-((1-(3-chlorophenyl)-3-(trifluoromethyl)-1H-pyrazol-5-yl)methyl)-2-(6-hydroxynaphthalen-2-yl)propanamide], at hVR1, the “Ki (human being) [nM] Cap: agonist / partial agonist / no effect” value is “pAG” and the Ki was 1.3 nM. Besides, in assay [1], the “Ki (rat) [nM] Cap: agonist / partial agonist / no effect” value is on record as “pAG” and the affinity corresponds to a Ki of 2.5 nM.
`CC(C(=O)NCc1cc(C(C)(C)C)nn1-c1cccc(Cl)c1)c1ccc2c(c1)OCCO2` (stereo not drawn) [Example 13, N-((3-tert-butyl-1-(3-chlorophenyl)-1H-pyrazol-5-yl)methyl)-2-(2,3-dihydrobenzo[b][1,4]dioxin-6-yl)propanamide]: on hVR1, the “Ki (human being) [nM] Cap: agonist / partial agonist / no effect” value is listed as “pAG” and the Ki was 6.4 nM. Also, in assay [1], the “Ki (rat) [nM] Cap: agonist / partial agonist / no effect” value was “pAG” and the affinity corresponds to a Ki of 5.5 nM.
With `CC(C(=O)NCc1cc(C(C)(C)C)nn1-c1cccc(Cl)c1)c1ccc2c(c1)OCO2` (stereo not drawn) [Example 11, 2-(benzo[d][1,3]dioxol-5-yl)-N-((3-tert-butyl-1-(3-chlorophenyl)-1H-pyrazol-5-yl)methyl)propanamide], on hVR1, the “Ki (human being) [nM] Cap: agonist / partial agonist / no effect” value was “pAG” and the Ki is 3.5 nM. The “Ki (rat) [nM] Cap: agonist / partial agonist / no effect” value in assay [1] is given as “AG”.
For `CC(C(=O)NCc1cc(C(F)(F)F)nn1-c1cccc(Cl)c1)c1cccc2cnccc12` (stereo not drawn) [Example 64, N-((1-(3-chlorophenyl)-3-(trifluoromethyl)-1H-pyrazol-5-yl)methyl)-2-(isoquinolin-5-yl)propanamide], the inhibition constant Ki at hVR1 amounted to 0.2 nM; in assay [1] it was 1 nM.
